According to patent US20180044418A1, “COMBINATION OF A PD-1 ANTAGONIST AND VORINOSTAT FOR TREATING CANCER” (Merck Sharp & Dohme Corp., priority 2016, published 2018):

How the values were obtained:
[1] = system: CT-26 cells; assay: Anti-tumor response in CT-26 tumor-bearing mice; type: in vivo, BALB/cAnN mice
From the text: (§1) This experiment compared the anti-tumor response of tumor-bearing mice to treatment with one of three regimens: monotherapy with a murine anti-mouse PD-1 monoclonal antibody (anti-PD-1), monotherapy with Vorinostat and combination therapy with these two agents administered concurrently.
Tumor-bearing mice for this study were initiated by implanting 3×10^5 log-phase and sub-confluent CT-26 cells on the right lower dorsal flank of 7-8 week old female BALB/cAnN mice with an average body weight of 18 grams. When the mean tumor volume in these mice reached ˜100 cubic mm (60mm^3-150 mm^3) (FIG. 1(A)), the tumor-bearing mice were randomized to 4 treatment groups of 12 mice per group: (1) Isotype control+Vehicle control group;(2) anti-PD-1 +Vehicle control; (3) Vorinostat +Isotype control and; (4) anti-PD-1+Vorinostat. A monoclonal antibody of murine isotype IgG1 against murine PD-1 and isotype control were obtained from internal sources. The isotype control was a mouse monoclonal antibody specific for adenoviral hexon 25 and was of the isotype IgG1. […] Anti-PD-1 was administered to treatment groups 2 and 4 at 10 mg/kg i.p. every 5 days for each of 5 cycles. Vorinostat was administered to treatment groups 3 and 4 at 150 mg/kg every day for 27 days.

[2] = system: RENCA cells; assay: Anti-tumor response in RENCA tumor-bearing mice
From the text: as §1
Tumor-bearing mice for this study were initiated by implanting 1×10^6 log-phase and sub-confluent RENCA cells on the right lower dorsal flank of 7-8 week old female BALB/cmice with an average body weight of 19 grams. When the mean tumor volume in these mice reached ˜100 cubic mm (65mm^3-140 mm^3) (FIG. 9(A)), the tumor-bearing mice were randomized to 4 treatment groups of 12 mice per group: (1) Isotype control +Vehicle control group;(2) Anti-PD-1 +Vehicle control; (3) Vorinostat+Isotype control and; (4) Anti-PD-1 +Vorinostat. A monoclonal antibody of murine isotype IgG1 against murine PD-1 and isotype control were obtained from internal sources. The isotype control was a mouse monoclonal antibody specific for adenoviral hexon 25 and was of the isotype IgG1. The formulations for each reagent was as follows: Isotype contro1:75 mM NaCl, 10 mM sodium phosphate, 3% sucrose, pH7.3; anti-PD-1: 20 mM sodium acetate, 7% sucrose, pH5.5; and Vorinostat vehicle: 0.5% HPC (hydroxypropylcellulose) with 0.002% SDS (sodium dodecyl sulfate) in sterile water. Anti-PD-1 was administered to treatment groups 2 and 4 at 5 mg/kg i.p. every 5 days for each of 5 cycles. Vorinostat was administered to treatment groups 3 and 4 at 150 mg/kg every day for 29 days.

O=C(CCCCCCC(=O)Nc1ccccc1)NO [Vorinostat, suberoylanilide hydroxamic acid]
effect of Vorinostat on anti-PD-1 anti-tumor activity in the combination treatment arm [1]: did not demonstrate antagonistic effects
complete regressions (CR) ([1]; 12 per group, measured through Day 29, anti-PD-1 10 mg/kg i.p. every 5 days x5, Vorinostat 150 mg/kg every day for 27 days): No CRs
survival ([1]; at Day 30, FIG. 8(B)): 10%
effect of Vorinostat on anti-PD-1 anti-tumor activity in the combination treatment arm [2]: did not demonstrate antagonistic effects
survival ([2]; at Day 30, FIG. 9(B)): 23%
complete regressions (CRs) ([2]; monotherapy arms, measured through Day 29): No CRs
